Legend:
[1] = Binding affinity to poly A-poly U (unknown origin) assessed as spectral changes at pH7 by UV/vis spectra
[2] = Binding affinity to poly G-poly C (unknown origin) assessed as spectral changes at pH7 by UV/vis spectra
[3] = system: Calf thymus DNA; experiment: Binding affinity to calf thymus DNA assessed as spectral changes at pH7 by UV/vis spectra; assay type: nucleic-acid assay; conditions: Bos taurus
[4] = Binding affinity to poly U (unknown origin) assessed as binding constant at pH7 by UV/vis titration
[5] = system: Calf thymus DNA; experiment: Binding affinity to calf thymus DNA assessed as binding constant at pH7 by UV/vis titration; assay type: nucleic-acid assay; conditions: Bos taurus
[6] = Binding affinity to poly C (unknown origin) assessed as binding constant at pH7 by UV/vis titration
[7] = Binding affinity to poly G (unknown origin) assessed as binding constant at pH7 by UV/vis titration
[8] = Binding affinity to poly(dA-dT)2 (unknown origin) assessed as change in melting temperature at pH7
[9] = Binding affinity to poly A (unknown origin) assessed as spectral changes by UV/vis spectra
[10] = Binding affinity to poly(dA-dT)2 (unknown origin) assessed as binding constant at pH7 by UV/vis titration
[11] = Binding affinity to poly(dA-dT)2 (unknown origin) assessed as spectral changes at pH7 by UV/vis spectra
[12] = Binding affinity to poly A (unknown origin) assessed as binding constant at pH7 by UV/vis titration
[13] = system: Calf thymus DNA; experiment: Binding affinity to calf thymus DNA assessed as change in melting temperature at pH7; assay type: nucleic-acid assay; conditions: Bos taurus
[14] = Binding affinity to poly A-poly U (unknown origin) assessed as binding constant at pH7 by UV/vis titration
[15] = Binding affinity to poly A-poly U (unknown origin) assessed as change in melting temperature at pH7
[16] = Binding affinity to poly G-poly C (unknown origin) assessed as binding constant at pH7 by UV/vis titration
[17] = Binding affinity to poly C (unknown origin) assessed as spectral changes by UV/vis spectra
[18] = Binding affinity to poly G (unknown origin) assessed as spectral changes by UV/vis spectra
[19] = Binding affinity to poly U (unknown origin) assessed as spectral changes by UV/vis spectra
[20] = Solubility of the compound in water at 22 degC; assay type: physicochemical
[21] = Antiproliferative activity against human MIAPaCa2 cells assessed as growth inhibition after 72 hrs by MTT assay; assay type: functional; conditions: MIA PaCa-2, 72 h
[22] = Antiproliferative activity against human MOLT4 cells assessed as growth inhibition after 72 hrs by MTT assay; assay type: functional; conditions: MOLT-4, 72 h
[23] = system: MCF7; experiment: Antiproliferative activity against human MCF7 cells assessed as growth inhibition after 72 hrs by MTT assay; assay type: functional; conditions: MCF7, 72 h
[24] = system: SW-620; experiment: Antiproliferative activity against human SW620 cells assessed as growth inhibition after 72 hrs by MTT assay; assay type: functional; conditions: SW-620, 72 h
[25] = Antiproliferative activity against human HCT116 cells assessed as growth inhibition after 72 hrs by MTT assay; assay type: functional; conditions: HCT-116, 72 h
[26] = Antiproliferative activity against human H460 cells assessed as growth inhibition after 72 hrs by MTT assay; assay type: functional; conditions: NCI-H460, 72 h
[27] = system: HeLa; experiment: Antiproliferative activity against human HeLa cells assessed as growth inhibition after 72 hrs by MTT assay; assay type: functional
[28] = system: Mus musculus; experiment: Acute oral toxicity in po dosed BALB/C mouse after 24 hrs; assay type: organism-based; set-up: unit not given here; conditions: in vivo

SMILES | Activity [1] | Activity [2] | Activity [3] | log Ks [4] | log Ks [5] | log Ks [6] | log Ks [7] | ΔTm [8] | Activity [9] | log Ks [10] | Activity [11] | log Ks [12] | ΔTm [13] | log Ks [14] | ΔTm [15] | log Ks [16] | Activity [17] | Activity [18] | Activity [19] | solubility [20] | other results
N=C(N)c1ccc(-c2nc3ccc(N)cc3s2)cc1 | 45.5% | 25.3% | 42.2% | 5.15 | 4.48 | 4.19 | 4.6 | 2 °C | 24.3% | 5.04 | 37.5% | 3.99 | 0 °C | 4.5 | 1 °C | 4.4 | 13% | 33.5% | 14.7% | – | –
Cl.N=C(N)c1ccc2nc(-c3ccc(N)cc3)sc2c1.O | – | – | – | – | – | – | – | – | – | – | – | – | – | – | – | – | – | – | – | 3300 µg/mL | –
CS(=O)(=O)O.Nc1ccc(-c2nc3ccc(C4=NCCN4)cc3s2)cc1 | – | – | – | – | – | – | – | – | – | – | – | – | – | – | – | – | – | – | – | 130000 µg/mL | GI50 [21]: 1400 nM; GI50 [22]: 3200 nM; GI50 [23]: 11300 nM; GI50 [24]: 1100 nM; GI50 [25]: 1400 nM; GI50 [26]: 500 nM; GI50 [27]: 16600 nM; LD50 [28]: 175
CS(=O)(=O)O.Nc1ccc2nc(-c3ccc(C4=NCCN4)cc3)sc2c1 | – | – | – | – | – | – | – | – | – | – | – | – | – | – | – | – | – | – | – | 145000 µg/mL | GI50 [21]: 1100 nM; GI50 [22]: 2300 nM; GI50 [23]: 6700 nM; GI50 [24]: 1200 nM; GI50 [25]: 1400 nM; GI50 [26]: 400 nM; GI50 [27]: 17900 nM; LD50 [28]: 74.7
Nc1ccc2nc(-c3ccc(C4=NCCN4)cc3)sc2c1 | 53.1% | 23.9% | 38.1% | 4.43 | 4.77 | 5.23 | 5.61 | 2.1 °C | 29.5% | 5.19 | 41.1% | 4.83 | 0 °C | 4.94 | 1.3 °C | 5.1 | 16.5% | 28.6% | 17.5% | – | –
Cl.N=C(N)c1ccc(-c2nc3ccc(N)cc3s2)cc1.O | – | – | – | – | – | – | – | – | – | – | – | – | – | – | – | – | – | – | – | 700 µg/mL | –
Nc1ccc(-c2nc3ccc(C4=NCCN4)cc3s2)cc1 | 55.5% | 30% | 37.1% | 4.77 | 5.23 | 5.11 | 6.46 | 2.7 °C | 22.2% | 5.41 | 42.5% | 5.6 | 0.7 °C | 5.44 | 3.9 °C | 4.89 | 16.3% | 30.8% | 18.3% | – | –
CS(=O)(=O)O.N=C(N)c1ccc2nc(-c3ccc(N)cc3)sc2c1.O | – | – | – | – | – | – | – | – | – | – | – | – | – | – | – | – | – | – | – | 1100 µg/mL | GI50 [21]: 8500 nM; GI50 [22]: 2200 nM; GI50 [23]: 15100 nM; GI50 [24]: 4700 nM; GI50 [25]: 6100 nM; GI50 [26]: 3200 nM; GI50 [27]: 17500 nM; LD50 [28]: 26.1
Cl.Nc1ccc(-c2nc3ccc(C4=NCCN4)cc3s2)cc1.O | – | – | – | – | – | – | – | – | – | – | – | – | – | – | – | – | – | – | – | 200 µg/mL | –
Cl.Nc1ccc2nc(-c3ccc(C4=NCCN4)cc3)sc2c1.O | – | – | – | – | – | – | – | – | – | – | – | – | – | – | – | – | – | – | – | 600 µg/mL | –
CS(=O)(=O)O.N=C(N)c1ccc(-c2nc3ccc(N)cc3s2)cc1 | – | – | – | – | – | – | – | – | – | – | – | – | – | – | – | – | – | – | – | 12500 µg/mL | GI50 [21]: 9700 nM; GI50 [22]: 2800 nM; GI50 [23]: 1800 nM; GI50 [24]: 3500 nM; GI50 [25]: 1600 nM; GI50 [26]: 300 nM; GI50 [27]: 21000 nM; LD50 [28]: 31.5
N=C(N)c1ccc2nc(-c3ccc(N)cc3)sc2c1 | 71.6% | 20.3% | 45.6% | 4.81 | 4.46 | 4.57 | 4.85 | 2.8 °C | 23% | 5.09 | 39.8% | 4.3 | 0.7 °C | 4.55 | 1.3 °C | 4.5 | 13.6% | 23.4% | 16.3% | – | –
